The term MIC denotes the least concentration at which growth counts as inhibited. The fraction unbound is free concentration divided by total concentration. The low end stands for little free substance, the high end for much free substance.

Data set [1] deals with Staphylococcus aureus. The experiment in a line: Antibacterial screening (MIC), broth microdilution assay. It is filed as cell-based. The following applies: read-out: MIC Staph. aureus. The method, then: An initial screening for in vitro activity was conducted in a broth microtiter assay. The synthesized compounds were assayed against several […] such as Staphylococcus aureus and 2 different strains of E. coli (including a type strain and an antibiotic-susceptible strain). Following initial screening MICs were determined.
Staphylococcus aureus ATCC29213 Staphylococcus aureus ATCC33591 (MRSA) Eschericia coli ATCC25922 Eschericia coli ESS
The screening was performed with test compounds in 4 different concentrations.
MICs for ATCC type strains fall within the limits posted by the NCCLS (M100-S11) when tested against Vancomycin, Tetracycline and Gentamycin.

The subject of data set [2] is erythrocyte. In words: Erythrocyte hemolysis assay. The following applies: for 50% Haemolysis: concentration giving 50% haemolysis. It is filed as cell-based.
Data set [3] concerns MCF7 cells (ATCC: HTB 22). In words: MTT assay on MCF7 cells. It is filed as cell-based. From the text: The cytotoxicity effect of the compounds at different exposure times as a function of concentration has been tested in an erythrocyte hemolysis assay as well as an MTT assay on MCF7 cells (ATCC: HTB 22).
(Tetrazolium assays rely on reduction of a dye to a coloured formazan, in cell work by metabolically active cells.)

The target in data set [4] is bovine serum albumin (BSA) (Bos taurus, UniProt P02769). In words: Protein binding bioassay: MICs in presence or absence of 40 mg/ml BSA. It is filed as in vitro ADME. The settings on record: MICs with or without 40 mg/ml BSA. How it is done: Protein binding was performed using a bioassay determining MICs in the presence or absence of 40 mg/ml bovine serum albumin (BSA).
Sequence of bovine serum albumin (BSA) (P02769 25-607): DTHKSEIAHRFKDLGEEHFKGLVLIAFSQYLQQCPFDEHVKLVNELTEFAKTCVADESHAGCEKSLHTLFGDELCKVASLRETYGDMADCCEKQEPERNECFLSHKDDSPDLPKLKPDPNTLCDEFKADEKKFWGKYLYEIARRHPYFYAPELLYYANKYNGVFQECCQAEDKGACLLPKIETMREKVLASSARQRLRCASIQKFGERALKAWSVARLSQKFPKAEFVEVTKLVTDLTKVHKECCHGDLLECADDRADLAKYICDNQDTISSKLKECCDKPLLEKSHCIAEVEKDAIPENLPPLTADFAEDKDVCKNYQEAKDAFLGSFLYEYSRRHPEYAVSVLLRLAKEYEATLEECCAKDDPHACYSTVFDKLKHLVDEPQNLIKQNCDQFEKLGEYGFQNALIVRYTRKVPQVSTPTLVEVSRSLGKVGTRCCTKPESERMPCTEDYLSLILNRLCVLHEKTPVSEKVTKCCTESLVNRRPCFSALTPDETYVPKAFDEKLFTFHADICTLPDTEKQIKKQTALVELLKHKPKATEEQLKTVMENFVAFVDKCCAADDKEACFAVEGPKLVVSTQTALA

[5] abbreviates: Staphylococcus aureus, broth microdilution per NCCLS M7-A5, strain not given.

Molecules are shown by their SMILES. Values after ≈ are worked out from the molar mass of the structure shown. Read-outs that look alike come from different tables or passages of the source.

On to `O=C(O)c1cn(C2CC2)c2cc(N3CCNCC3)c(F)cc2c1=O` [Ciprofloxicin, reference compound], for which the MIC in data set [1] (broth microdilution per NCCLS M7-A5, strain not given) is on record as 1.5 µM (≈ 0.497 µg/mL). Also, in data set [2] (at 4x MIC), the “Haemolysis 4x MIC” value is given as 0%. Also, the “50% Haemolysis” value in data set [2] worked out at 150 µM. In data set [3], this compound displayed an MTT greater than 100 µM.

Take `FC(F)(F)c1cc(NC(=S)NCc2cccc(Cl)c2)cc(C(F)(F)F)c1` [Compound A, 1-(3,5-Bis-trifluoromethyl-phenyl)-3-(3-chloro-benzyl)-thiourea]: the MIC in data set [1] (setting [5]) was 0.6 µM (≈ 0.248 µg/mL). In data set [4], this compound gave a fraction unbound of 0.02. Besides, in data set [2] (at 4x MIC), the “Haemolysis 4x MIC” value is given as less than 1%. The “50% Haemolysis” value in data set [2] turned out to be 75 µM. For the same compound, in data set [3], the MTT was found to be 150 µM.

In the case of `FC(F)(F)c1cc(NC(=S)NCc2ccc(Cl)cc2Cl)cc(C(F)(F)F)c1` [Compound B, 1-(3,5-Bis-trifluoromethyl-phenyl)-3-(2,4-dichloro-benzyl)-thiourea], the fraction unbound in data set [4] is less than 0.02. In addition, the “Haemolysis 4x MIC” value in data set [2] (at 4x MIC) is less than 1%. In data set [2], the “50% Haemolysis” value was 150 µM. This compound also came in with an MTT in data set [3] of 150 µM.

For the compound `CC(NC(=S)Nc1cc(C(F)(F)F)cc(C(F)(F)F)c1)c1ccc(Br)cc1` (stereo not shown) [Compound C, 1-(3,5-Bis-trifluoromethyl-phenyl)-3-[1-(4-bromo-phenyl)-ethyl]-thiourea], in data set [1] (setting [5]), the MIC stood at 0.3 µM (≈ 0.141 µg/mL). The compound also gave a fraction unbound in data set [4] of 0.02. Besides, the “Haemolysis 4x MIC” value in data set [2] (at 4x MIC) is 15%. For the same compound, in data set [2], the “50% Haemolysis” value came to 37.5 µM.

Take `FC(F)(F)c1cc(NC(=S)NCCc2ccc(Cl)cc2Cl)cc(C(F)(F)F)c1` [Compound D, 1-(3,5-Bis-trifluoromethyl-phenyl)-3-[2-(2,4-dichloro-phenyl)-ethyl]-thiourea]: the MIC in data set [1] (setting [5]) worked out at 0.3 µM (≈ 0.138 µg/mL). Also, the fraction unbound in data set [4] is 0.02. For the same compound, the MTT in data set [3] amounted to 150 µM.

For the compound `FC(F)(F)c1cc(NC(=S)NCCOc2ccc(Cl)c(Cl)c2)cc(C(F)(F)F)c1` [Compound E, 1-(3,5-Bis-trifluoromethyl-phenyl)-3-[2-(3,4-dichloro-phenoxy)-ethyl]-thiourea], the MIC in data set [1] (setting [5]) amounted to 0.3 µM (≈ 0.143 µg/mL). The same compound gave a fraction unbound in data set [4] of 0.02. Further, in data set [2], the “50% Haemolysis” value amounted to 18.8 µM.

In data set [4], `FC(F)(F)c1cc(NC(=S)NCc2ccc(Cl)cc2)cc(C(F)(F)F)c1` [Compound F, 1-(3,5-Bis-trifluoromethyl-phenyl)-3-(4-chloro-benzyl)-thiourea] returned a fraction unbound of less than 0.03. The “Haemolysis 4x MIC” value in data set [2] (at 4x MIC) is reported as less than 1%. In addition, in data set [2], the “50% Haemolysis” value is 150 µM. Besides, in data set [3], the MTT came out at 150 µM.

With `FC(F)(F)c1cc(NC(=S)NCCc2cccc(Cl)c2)cc(C(F)(F)F)c1` [Compound G, 1-(3,5-Bis-trifluoromethyl-phenyl)-3-[2-(3-chloro-phenyl)-ethyl]-thiourea], the MIC in data set [1] (setting [5]) came to 0.6 µM (≈ 0.256 µg/mL). The compound further registered an unbound share (fraction unbound) in data set [4] of less than 0.03. Moreover, the “Haemolysis 4x MIC” value in data set [2] (at 4x MIC) is 0%. The “50% Haemolysis” value in data set [2] is 75 µM. The same compound yielded an MTT in data set [3] of 150 µM.

On to `Cc1onc(-c2c(Cl)cccc2Cl)c1C(=O)N[C@@H]1C(=O)N2[C@@H]1SC(C)(C)[C@@H]2C(=O)O` [Dicloxacillin, reference compound], for which the MIC in data set [1] (setting [5]) was 0.5 µM (≈ 0.235 µg/mL). For the same compound, the “Haemolysis 4x MIC” value in data set [2] (4 x MIC) is given as 0%. Moreover, in data set [2], the “50% Haemolysis” value is 150 µM. The same compound displayed an MTT in data set [3] greater than 100 µM.

For `CN[C@H](CC(C)C)C(=O)N[C@H]1C(=O)N[C@@H](CC(N)=O)C(=O)N[C@H]2C(=O)N[C@H]3C(=O)N[C@H](C(=O)N[C@H](C(=O)O)c4cc(O)cc(O)c4-c4cc3ccc4O)[C@H](O)c3ccc(c(Cl)c3)Oc3cc2cc(c3O[C@@H]2O[C@H](CO)[C@@H](O)[C@H](O)[C@H]2O[C@H]2C[C@](C)(N)[C@H](O)[C@H](C)O2)Oc2ccc(cc2Cl)[C@H]1O` [Vancomycin, reference compound], the MIC in data set [1] (Staphylococcus aureus) was determined as 0.3 µM (≈ 0.435 µg/mL). Further, in data set [2] (at 4x MIC), the “Haemolysis 4x MIC” value is recorded as 0%. In addition, the “50% Haemolysis” value in data set [2] is 150 µM. In data set [3], this compound had an MTT greater than 100 µM.

The values above are taken from patent publication US20100093864A1, “ANTI-INFECTIVE THIOUREA COMPOUNDS” (LICA PHARMACEUTICALS, priority 2006, published 2010).
